Results: PubChem BioAssay (NCI)
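Following 48 hours of exposure in 96-well plates, responses at five concentrations were used to interpolate endpoints linearly. TGI denotes the concentration required for complete inhibition of growth.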

Key:
Test in all cases: NCI anticancer screen, dose series, 48 h
HOP-62 NSCLC = system: HOP-62 NSCLC
TK-10 renal = system: TK-10 renal
KM20L2 colon = system: KM20L2 colon
HT29 colon = system: HT29 colon
786-0 renal = system: 786-0 renal
IGROV1 ovarian = system: IGROV1 ovarian
COLO 205 colon = system: COLO 205 colon
LOX IMVI melanoma = system: LOX IMVI melanoma
SNB-19 CNS = system: SNB-19 CNS
SW-620 colon = system: SW-620 colon
DMS 273 small cell lung = system: DMS 273 small cell lung
NCI-H23 lung = system: NCI-H23 lung
OVCAR-4 ovarian = system: OVCAR-4 ovarian
A498 renal = system: A498 renal
NCI-H460 lung = system: NCI-H460 lung
LXFL 529 NSCLC = system: LXFL 529 NSCLC
OVCAR-5 ovarian = system: OVCAR-5 ovarian
CCRF-CEM leukemia = system: CCRF-CEM leukemia
MOLT-4 leukemia = system: MOLT-4 leukemia
MALME-3M melanoma = system: MALME-3M melanoma
SK-MEL-5 melanoma = system: SK-MEL-5 melanoma
UO-31 renal = system: UO-31 renal
SF-268 CNS = system: SF-268 CNS
HCT-116 colon = system: HCT-116 colon
ACHN renal = system: ACHN renal
SNB-78 CNS = system: SNB-78 CNS
HCT-15 colon = system: HCT-15 colon
KM12 colon = system: KM12 colon
OVCAR-8 ovarian = system: OVCAR-8 ovarian
DMS 114 small cell lung = system: DMS 114 small cell lung
SK-MEL-28 melanoma = system: SK-MEL-28 melanoma
UACC-257 melanoma = system: UACC-257 melanoma
SK-OV-3 ovarian = system: SK-OV-3 ovarian
XF 498 CNS = system: XF 498 CNS
OVCAR-3 ovarian = system: OVCAR-3 ovarian
HOP-92 NSCLC = system: HOP-92 NSCLC
SF-295 CNS = system: SF-295 CNS
SF-539 CNS = system: SF-539 CNS
HCC-2998 colon = system: HCC-2998 colon
U251 CNS = system: U251 CNS
RXF 393 renal = system: RXF 393 renal
M19-MEL melanoma = system: M19-MEL melanoma
DLD-1 colon = system: DLD-1 colon
SK-MEL-2 melanoma = system: SK-MEL-2 melanoma
HL-60(TB) leukemia = system: HL-60(TB) leukemia
RXF-631 renal = system: RXF-631 renal
RPMI-8226 leukemia = system: RPMI-8226 leukemia
K-562 leukemia = system: K-562 leukemia
NCI-H226 lung = system: NCI-H226 lung
EKVX NSCLC = system: EKVX NSCLC
M14 melanoma = system: M14 melanoma
UACC-62 melanoma = system: UACC-62 melanoma
SN12C renal = system: SN12C renal
A549 NSCLC = system: A549 NSCLC
SNB-75 CNS = system: SNB-75 CNS
DU-145 prostate = system: DU-145 prostate
T-47D breast = system: T-47D breast
MDA-N = system: MDA-N
BT-549 breast = system: BT-549 breast
SR leukemia = system: SR leukemia
HOP-18 NSCLC = system: HOP-18 NSCLC
NCI-H522 lung = system: NCI-H522 lung
MDA-MB-231 breast = system: MDA-MB-231 breast
PC-3 prostate = system: PC-3 prostate
MDA-MB-435 = system: MDA-MB-435
MCF7 breast = system: MCF7 breast
HS 578T breast = system: HS 578T breast
CAKI-1 renal = system: CAKI-1 renal

C[C@]12Cc3conc3C(O)=C1CC[C@@H]1C2CC[C@@]2(C)C1CC[C@]2(C)O (stereo partly drawn)
TGI (HOP-62 NSCLC): 64.2 µM
TGI (TK-10 renal): 71.9 µM
TGI (KM20L2 colon): 42.7 µM
TGI (HT29 colon): 89.4 µM
TGI (786-0 renal): > 100 µM
TGI (IGROV1 ovarian): 62.2 µM
TGI (COLO 205 colon): 52.1 µM
TGI (LOX IMVI melanoma): 22.7 µM
TGI (SNB-19 CNS): > 100 µM
TGI (SW-620 colon): > 100 µM
TGI (DMS 273 small cell lung): 26.3 µM
TGI (NCI-H23 lung): 49.9 µM
TGI (OVCAR-4 ovarian): 44.4 µM
TGI (A498 renal): 51.9 µM
TGI (NCI-H460 lung): 36.3 µM
TGI (LXFL 529 NSCLC): 35.7 µM
TGI (OVCAR-5 ovarian): 92.2 µM
TGI (CCRF-CEM leukemia): 46.5 µM
TGI (MOLT-4 leukemia): 42.3 µM
TGI (MALME-3M melanoma): 59.2 µM
TGI (SK-MEL-5 melanoma): 30.7 µM
TGI (UO-31 renal): 50.3 µM
TGI (SF-268 CNS): > 100 µM
TGI (HCT-116 colon): 39.3 µM
TGI (ACHN renal): 89.5 µM
TGI (SNB-78 CNS): 63.4 µM
TGI (HCT-15 colon): > 100 µM
TGI (KM12 colon): 64.9 µM
TGI (OVCAR-8 ovarian): 61.3 µM
TGI (DMS 114 small cell lung): 43.4 µM
TGI (SK-MEL-28 melanoma): 83 µM
TGI (UACC-257 melanoma): 80.4 µM
TGI (SK-OV-3 ovarian): 57.4 µM
TGI (XF 498 CNS): 47.2 µM
TGI (OVCAR-3 ovarian): 80.7 µM
TGI (HOP-92 NSCLC): 61.5 µM
TGI (SF-295 CNS): 74.3 µM
TGI (SF-539 CNS): 60.6 µM
TGI (HCC-2998 colon): 62.1 µM
TGI (U251 CNS): 48.9 µM
TGI (RXF 393 renal): 44 µM
TGI (M19-MEL melanoma): 41.9 µM
TGI (DLD-1 colon): 57.5 µM
TGI (SK-MEL-2 melanoma): 39.3 µM
TGI (HL-60(TB) leukemia): 10.7 µM
TGI (RXF-631 renal): > 100 µM
TGI (RPMI-8226 leukemia): 22.7 µM
TGI (K-562 leukemia): 87.8 µM
TGI (NCI-H226 lung): 47.3 µM
TGI (EKVX NSCLC): 87.6 µM
TGI (M14 melanoma): 36.2 µM
TGI (UACC-62 melanoma): 29.2 µM
TGI (SN12C renal): > 100 µM
TGI (A549 NSCLC): > 100 µM
TGI (SNB-75 CNS): 32.4 µM

O=C1C(Cl)=C(Cl)C(=O)N1c1ccc(F)cc1
TGI (HOP-62 NSCLC): 98.7 µM
TGI (TK-10 renal): 35.1 µM
TGI (KM20L2 colon): 52.8 µM
TGI (DU-145 prostate): > 100 µM
TGI (HT29 colon): 49.8 µM
TGI (786-0 renal): 31 µM
TGI (IGROV1 ovarian): 43.6 µM
TGI (COLO 205 colon): 35.1 µM
TGI (LOX IMVI melanoma): 32.6 µM
TGI (SNB-19 CNS): > 73.2 µM
TGI (SW-620 colon): 34.1 µM
TGI (DMS 273 small cell lung): > 62 µM
TGI (T-47D breast): 51.2 µM
TGI (NCI-H23 lung): 36.9 µM
TGI (OVCAR-4 ovarian): 23.8 µM
TGI (MDA-N): 48.7 µM
TGI (A498 renal): > 100 µM
TGI (NCI-H460 lung): > 100 µM
TGI (LXFL 529 NSCLC): 32.1 µM
TGI (OVCAR-5 ovarian): 41 µM
TGI (CCRF-CEM leukemia): 16.5 µM
TGI (MOLT-4 leukemia): 34.8 µM
TGI (MALME-3M melanoma): 32.5 µM
TGI (SK-MEL-5 melanoma): > 67.9 µM
TGI (BT-549 breast): 30.1 µM
TGI (SR leukemia): 47.2 µM
TGI (UO-31 renal): 48.8 µM
TGI (SF-268 CNS): > 77.3 µM
TGI (HCT-116 colon): > 54.5 µM
TGI (ACHN renal): 36.3 µM
TGI (SNB-78 CNS): 71.3 µM
TGI (HCT-15 colon): 34 µM
TGI (KM12 colon): 50.2 µM
TGI (OVCAR-8 ovarian): 45.1 µM
TGI (DMS 114 small cell lung): 39.4 µM
TGI (SK-MEL-28 melanoma): 37.1 µM
TGI (UACC-257 melanoma): > 100 µM
TGI (SK-OV-3 ovarian): > 69.2 µM
TGI (XF 498 CNS): 34.9 µM
TGI (HOP-18 NSCLC): 43.1 µM
TGI (OVCAR-3 ovarian): 32.4 µM
TGI (HOP-92 NSCLC): 35.8 µM
TGI (NCI-H522 lung): 5.95 µM
TGI (MDA-MB-231 breast): 33 µM
TGI (PC-3 prostate): 29.8 µM
TGI (SF-295 CNS): > 100 µM
TGI (MDA-MB-435): 34.9 µM
TGI (SF-539 CNS): 51.9 µM
TGI (HCC-2998 colon): 48.1 µM
TGI (U251 CNS): 53.2 µM
TGI (RXF 393 renal): 38.5 µM
TGI (M19-MEL melanoma): 41.8 µM
TGI (DLD-1 colon): 41 µM
TGI (SK-MEL-2 melanoma): > 72.8 µM
TGI (HL-60(TB) leukemia): 11.5 µM
TGI (MCF7 breast): 42.9 µM
TGI (HS 578T breast): 55.4 µM
TGI (RXF-631 renal): > 72.6 µM
TGI (RPMI-8226 leukemia): 59.7 µM
TGI (K-562 leukemia): > 51.1 µM
TGI (CAKI-1 renal): 21 µM
TGI (NCI-H226 lung): > 77.7 µM
TGI (EKVX NSCLC): 40.6 µM
TGI (M14 melanoma): 39.5 µM
TGI (UACC-62 melanoma): 31.7 µM
TGI (SN12C renal): 34.9 µM
TGI (A549 NSCLC): > 100 µM
TGI (SNB-75 CNS): 20.8 µM

COc1cccc2c(SCC(=O)Nc3ccccc3-c3ccccc3NC(=O)CSc3c4ccccc4nc4c(OC)cccc34)c3ccccc3nc12
TGI (HOP-62 NSCLC): > 100 µM
TGI (TK-10 renal): > 100 µM
TGI (KM20L2 colon): > 100 µM
TGI (HT29 colon): > 100 µM
TGI (786-0 renal): > 100 µM
TGI (IGROV1 ovarian): > 100 µM
TGI (COLO 205 colon): > 100 µM
TGI (SNB-19 CNS): > 100 µM
TGI (DMS 273 small cell lung): > 100 µM
TGI (NCI-H23 lung): > 100 µM
TGI (OVCAR-4 ovarian): > 100 µM
TGI (NCI-H460 lung): > 100 µM
TGI (OVCAR-5 ovarian): > 100 µM
TGI (CCRF-CEM leukemia): > 100 µM
TGI (MOLT-4 leukemia): > 100 µM
TGI (SK-MEL-5 melanoma): > 100 µM
TGI (SR leukemia): > 100 µM
TGI (SF-268 CNS): > 100 µM
TGI (HCT-116 colon): > 100 µM
TGI (ACHN renal): > 100 µM
TGI (SNB-78 CNS): > 100 µM
TGI (HCT-15 colon): > 100 µM
TGI (KM12 colon): > 100 µM
TGI (OVCAR-8 ovarian): > 100 µM
TGI (DMS 114 small cell lung): > 100 µM
TGI (SK-MEL-28 melanoma): > 100 µM
TGI (XF 498 CNS): > 100 µM
TGI (OVCAR-3 ovarian): > 100 µM
TGI (SF-295 CNS): > 100 µM
TGI (SF-539 CNS): > 100 µM
TGI (HCC-2998 colon): > 100 µM
TGI (U251 CNS): > 100 µM
TGI (RXF 393 renal): > 100 µM
TGI (DLD-1 colon): > 100 µM
TGI (SK-MEL-2 melanoma): > 100 µM
TGI (HL-60(TB) leukemia): > 100 µM
TGI (RXF-631 renal): > 100 µM
TGI (K-562 leukemia): > 100 µM
TGI (NCI-H226 lung): > 100 µM
TGI (EKVX NSCLC): 95 µM
TGI (M14 melanoma): > 100 µM
TGI (UACC-62 melanoma): > 100 µM
TGI (SN12C renal): > 100 µM
TGI (A549 NSCLC): > 100 µM
TGI (SNB-75 CNS): 44.5 µM
